Results taken from patent publication US5622962A, “5α-reductase inhibitors” (priority 1995, dated 1997).
Read-outs that look alike come from different tables or passages of the source.

Tests used:
[1] = target: T1, Type II 5α-Reductase from Human Prostate (Homo sapiens, UniProt P31213); assay: Human Type II 5α-reductase assay (conversion of [3H]-testosterone to 5α-reduced metabolites); type: biochemical
T1 construct: The same procedure as above was used for preparations using tissue from prostate surgery; from tissue; host or cells: human prostate tissue from surgery, homogenate, 100,000×g pellet
T1 sequence (P31213 1-254): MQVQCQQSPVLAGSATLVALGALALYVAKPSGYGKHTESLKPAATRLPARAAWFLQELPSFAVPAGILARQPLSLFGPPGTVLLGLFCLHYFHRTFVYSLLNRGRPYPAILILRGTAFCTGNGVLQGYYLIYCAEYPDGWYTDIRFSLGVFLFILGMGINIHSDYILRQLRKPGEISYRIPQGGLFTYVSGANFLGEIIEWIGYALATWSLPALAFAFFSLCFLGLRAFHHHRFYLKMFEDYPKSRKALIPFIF

[2] = target: T2, Type I 5α-Reductase from Human Scalp (Homo sapiens, UniProt P18405); assay: Human Type I 5α-reductase assay (conversion of [3H]-testosterone to 5α-reduced metabolites); type: biochemical
T2 construct: Scalp punch biopsies from graft recipient sites were obtained from human hair transplant procedures; from tissue; host or cells: human scalp punch biopsies (hair transplant graft recipient sites), homogenate, 100,000×g pellet
T2 sequence (P18405 1-259): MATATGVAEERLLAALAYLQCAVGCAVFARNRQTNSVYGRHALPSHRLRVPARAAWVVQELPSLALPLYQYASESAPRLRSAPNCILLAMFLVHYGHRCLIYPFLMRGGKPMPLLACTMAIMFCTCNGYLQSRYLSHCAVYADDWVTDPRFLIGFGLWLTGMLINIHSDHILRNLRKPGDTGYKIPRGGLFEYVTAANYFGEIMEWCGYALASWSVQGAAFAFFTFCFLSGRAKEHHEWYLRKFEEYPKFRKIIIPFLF

[3] = pH 5.5, 0.3 μM, sodium acetate pH 5.5, 25°, 30 min, compared to control reaction mixtures, read-out: percent inhibition of Type II AR
[4] = pH 7.5, 0.3 μM, 50 nM [3H]-testosterone, pH 7.5, 25°, 180 min, compared to control reaction mixtures, read-out: percent inhibition of Type I AR

Row | SMILES | inhibition at 0.3 µM [1, 3] | inhibition at 0.3 µM [2, 4] | inhibition at 0.3 µM ([1]; pH 5.5, read-out: percent inhibition of Type II AR) | inhibition at 0.3 µM ([2]; pH 7.5, read-out: percent inhibition of Type I AR)
1 | CN1C(=O)C=C[C@]2(C)c3ccc(-c4cccc([N+](=O)[O-])c4)cc3CC[C@@H]12 [Example 118, (+)-(4aR)-(10bR)-4-methyl-8-(3-nitrophenyl)-10b-methyl-3,4,4a,5,6,10b-hexahydrobenzo[f]quinolin-3-one] | 43% | 25% |  | 
2 | CSc1ccc(-c2ccc3c(c2)CC[C@H]2N(C)C(=O)CC[C@]32C)cc1 [Example 120, (+)-(4aR)-(10bR)-4-methyl-8-(4-methylthiophenyl)-10b-methyl-1,2,3,4,4a,5,6,10b-octahydrobenzo[f]quinolin-3-one] | 37% | 93% |  | 
3 | CNS(=O)(=O)c1ccc(-c2ccc3c(c2)CC[C@H]2N(C)C(=O)CC[C@]32C)cc1 [Example 123] | 27% | 10% |  | 
4 | CN1C(=O)CC[C@]2(C)c3ccc(-c4ccccc4[N+](=O)[O-])cc3CC[C@@H]12 [Example 124, (+)-(4aR)-(10bR)-4-methyl-8-(2-nitrophenyl)-10b-methyl-1,2,3,4,4a,5,6,10b-octahydrobenzo[f]quinolin-3-one] | 32% | 23% |  | 
5 | CN1C(=O)CC[C@]2(C)c3ccc(-c4ccccc4C#N)cc3CC[C@@H]12 [Example 125, (+)-(4aR)-(10bR)-4-methyl-8-(2-cyanophenyl)-10b-methyl-1,2,3,4,4a,5,6,10b-octahydrobenzo[f]quinolin-3-one] | 36% | 64% |  | 
6 | CN1C(=O)CC[C@]2(C)c3ccc(-c4ccc(COc5ccccc5)s4)cc3CC[C@@H]12 [Example 126, (+)-(4aR)-(10bR)-4-methyl-8-(2-[5-(phenoxymethyl)thienyl])-10b-methyl-1,2,3,4,4a,5,6,10b-octahydrobenzo[f]quinolin-3-one] | 43% | 85% |  | 
7 | CN1C(=O)CC[C@]2(C)c3ccc(-c4cc(F)c(F)cc4F)cc3CC[C@@H]12 [Example 128, (+)-(4aR)-(10bR)-4-methyl-8-(2,4,5-trifluorophenyl)-10b-methyl-1,2,3,4,4a,5,6,10b-octahydrobenzo[f]quinolin-3-one] | 40% | 82% |  | 
8 | CN1C(=O)CC[C@]2(C)c3ccc(-c4ccc(COc5ccc(F)cc5)s4)cc3CC[C@@H]12 [Example 129, (+)-(4aR)-(10bR)-4-methyl-8-(2-[5-(4-fluorophenoxy-methyl)thienyl])-10b-methyl-1,2,3,4,4a,5,6,10b-octahydrobenzo[f]-quinolin-3-one] | 36% | 91% |  | 
9 | CN1C(=O)CC[C@]2(C)c3ccc(-c4cc(F)cc(F)c4F)cc3CC[C@@H]12 [Example 130, (+)-(4aR)-(10bR)-4-methyl-8-(2,3,5-trifluorophenyl)-10b-methyl-1,2,3,4,4a,5,6,10b-octahydrobenzo[f]quinolin-3-one] | 29% | 83% |  | 
10 | CN1C(=O)CC[C@]2(C)c3ccc(-c4ccc5c(c4)Cc4ccccc4-5)cc3CC[C@@H]12 [Example 131, (+)-(4aR)-(10bR)-4-methyl-8-(2-fluorenyl)-10b-methyl-1,2,3,4,4a,5,6,10b-octahydrobenzo[f]quinolin-3-one] | 44% | 57% |  | 
11 | CN1C(=O)CC[C@]2(C)c3ccc(-c4cc(Cl)sc4Cl)cc3CC[C@@H]12 [Example 132, (+)-(4aR)-(10bR)-4-methyl-8-(3-[2,5-dichlororo]thienyl)-10b-methyl-1,2,3,4,4a,5,6,10b-octahydrobenzo[f]quinolin-3-one] | 24% | 87% |  | 
12 | CN1C(=O)CC[C@]2(C)c3ccc(-c4ccc([N+](=O)[O-])cc4C(F)(F)F)cc3CC[C@@H]12 [Example 133, (+)-(4aR)-(10bR)-4-methyl-8-(4-nitro-2-trifluoromethylphenyl)-10b-methyl-1,2,3,4,4a,5,6,10b-octahydrobenzo[f]-quinolin-3-one] |  |  | 34% | 77%
13 | CN1C(=O)CC[C@]2(C)c3ccc(-c4ccc(C(F)(F)F)cc4[N+](=O)[O-])cc3CC[C@@H]12 [Example 134, (+)-(4aR)-(10bR)-4-methyl-8-(2-nitro-4-trifluoromethylphenyl)-10b-methyl-1,2,3,4,4a,5,6,10b-octahydrobenzo[f]-quinolin-3-one] | 46% | 97% |  | 
14 | CN1C(=O)CC[C@]2(C)c3ccc(-c4c(F)c(F)c(Cl)c(F)c4F)cc3CC[C@@H]12 [Example 135, (+)-(4aR)-(10bR)-4-methyl-8-(4-chloro-2,3,5,6-tetrafluorophenyl)-10b-methyl-1,2,3,4,4a,5,6,10b-octahydrobenzo[f]-quinolin-3-one] | 31% | 92% |  | 
15 | CN1C(=O)CC[C@]2(C)c3ccc(SCc4ccccc4)cc3CC[C@@H]12 [Example 136, (4aR)-(10bR)-8-benzylthio-4,10b-dimethyl-1,2,3,4,4a,5,6, 10b-octahydrobenzo[f]quinolin-3-one] | 32% | 100% |  | 
16 | CN1C(=O)CC[C@]2(C)c3ccc(CSc4ccccc4)cc3CC[C@@H]12 [Example 137, (4aR)-(10bR)-8-phenylthiomethyl-4,10b-dimethyl-1,2,3,4,4a,5,6,10b-octahydrobenzo[f]quinolin-3-one] | 37% | 90% |  | 
17 | CN1C(=O)CC[C@]2(C)c3ccc(CSc4nc5ccccc5s4)cc3CC[C@@H]12 [Example 138, (4aR)-(10bR)-8-(2-benzothiazole)thiomethyl-4,10b-dimethyl-1,2,3,4,4a,5,6,10b-octahydrobenzo[f]quinolin-3-one] | 26% | 88% |  | 
18 | CN1C(=O)CC[C@]2(C)c3ccc(C(c4ccccc4)c4ccccc4)cc3CC[C@@H]12 [Example 139, (4aR)-(10bR)-8-diphenylmethyl-4,10b-dimethyl-1,2,3,4,-4a,5,6,10b-octahydrobenzo[f]quinolin-3-one] | 59% | 30% |  | 
19 | CN1C(=O)CC[C@]2(C)c3ccc(C(=O)Nc4ccccc4)cc3CC[C@@H]12 [Example 143, (+)-(4aR)-(10bR)-4-methyl-8-(phenylcarboxamido)-10b-methyl-1,2,3,4,4a,5,6,10b-octahydrobenzo[f]quinolin-3-one] | 18% | 63% |  | 
20 | CN1C(=O)CC[C@]2(C)c3ccc(C(=O)OCc4ccccc4)cc3CC[C@@H]12 [Example 144, (+)-(4aR)-(10bR)-4-methyl-8-benzyloxycarbonyl-10b-methyl-1,2,3,4,4a,5,6,10b-octahydrobenzo[f]quinolin-3-one] | 40% | 90% |  | 
21 | CN1C(=O)CC[C@]2(C)c3ccc(C(=O)Oc4ccccc4)cc3CC[C@@H]12 [Example 145, (+)-(4aR)-(10bR)-4-methyl-8-phenoxycarbonyl-10b-methyl-1 2,3,4,4a,5,6,10b-octahydrobenzo[f]quinolin-3-one] | 41% | 85% |  | 
22 | CN1C(=O)CC[C@]2(C)c3ccc(C(=O)NCc4ccccc4)cc3CC[C@@H]12 [Example 146, (+)-(4aR)-(10bR)-4-methyl-8-(benzylcarboxamido)-10b-methyl-1,2,3,4,4a,5,6,10b-octahydrobenzo[f]quinolin-3-one] | 32% | 13% |  | 
23 | CN1C(=O)CC[C@]2(C)c3ccc(C(=O)OC(c4ccccc4)c4ccccc4)cc3CC[C@@H]12 [Example 147, (4aR)-(10bR)-4,10b-dimethyl-8-diphenylmethoxycarbonyl-1,2,3,4,4a,5,6,10b-octahydrobenzo[f]quinolin-3-one] | 83% | 35% |  | 
24 | CN1C(=O)CC[C@]2(C)c3ccc(C(=O)NC(c4ccccc4)c4ccccc4)cc3CC[C@@H]12 [Example 148, (4aR)-(10bR)-4,10b-dimethyl-8-diphenylmethylcarboxamido-1,2,3,4,4a,5,6,10b-octahydrobenzo[f]quinolin-3-one] | 12% | 2% |  | 
25 | CN1C(=O)CC[C@]2(C)c3ccc(Sc4nccs4)cc3CC[C@@H]12 [Example 149, (+)-(4aR)-(10bR)-4-methyl-8-(2-thiazoylthio)-10b-methyl-1,2,3,4,4a,5,6,10b-octahydrobenzo[f]quinolin-3-one] | 33% | 58% |  | 
26 | CN1C(=O)CC[C@]2(C)c3ccc(Sc4nc5ccccc5o4)cc3CC[C@@H]12 [Example 150, (+)-(4aR)-(10bR)-4-methyl-8-(2-benzoxazolylthio)-10b-methyl-1,2,3,4,4a,5,6,10b-octahydrobenzo[f]quinolin-3-one] | 69% | 67% |  | 
27 | CN1C(=O)CC[C@]2(C)c3ccc(Sc4ncccn4)cc3CC[C@@H]12 [Example 151, (+)-(4aR)-(10bR)-4-methyl-8-(2-pyrimidinylthio)-10b-methyl-1,2,3,4,4a,5,6,10b-octahydrobenzo[f]quinolin-3-one] | 28% | 31% |  | 
